Data taken from patent US20250282746A1, “HALOGEN-SUBSTITUTED ISOINDOLINE COMPOUND AND USE THEREOF” (CHENGDU FENDI PHARMACEUTICAL CO., LTD., priority 2022, published 2025).
Read-outs that look alike come from different tables or passages of the source.

How the values were obtained:
[1] = target: T1, GSPT1 protein (Homo sapiens, UniProt P15170); assay: Degradation of GSPT1 protein in NB-4 cells (Western blot); type: cell-based; details: read-out: GSPT1 degradation
T1 construct: The whole cell lysate was prepared using a RIPA lysis buffer; endogenous in cells; host or cells: NB-4 cells
T1 sequence (P15170 whole entry): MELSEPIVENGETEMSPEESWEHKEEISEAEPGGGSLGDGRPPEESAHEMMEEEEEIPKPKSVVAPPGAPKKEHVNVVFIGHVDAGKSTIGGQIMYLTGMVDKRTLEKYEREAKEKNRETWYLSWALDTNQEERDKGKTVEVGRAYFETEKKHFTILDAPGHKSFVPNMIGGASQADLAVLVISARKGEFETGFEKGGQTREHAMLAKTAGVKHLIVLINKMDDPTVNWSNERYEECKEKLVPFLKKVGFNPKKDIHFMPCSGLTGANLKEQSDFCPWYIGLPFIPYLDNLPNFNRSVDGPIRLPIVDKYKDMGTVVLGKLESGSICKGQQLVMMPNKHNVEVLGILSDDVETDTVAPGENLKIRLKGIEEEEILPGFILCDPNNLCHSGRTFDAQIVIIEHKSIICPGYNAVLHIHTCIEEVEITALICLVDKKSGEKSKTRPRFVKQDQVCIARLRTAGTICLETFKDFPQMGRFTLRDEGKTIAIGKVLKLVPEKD
Description: 150 μL of DMSO and the compounds (1 μM) were added, and the mixture was incubated in an incubator at 5% CO2 and 37° C. for 6 h. The cells were centrifuged, and the culture medium was discarded. PBS was added for washing and then discarded. The whole cell lysate was prepared using a RIPA lysis buffer containing a protease inhibitor cocktail and a phosphatase inhibitor, and incubated on ice for 30 min. The mixture was centrifuged, and the cell debris was discarded. The whole cell lysate supernatant was collected and transferred to a fresh EP tube. Samples were prepared using a loading buffer after a BCA protein assay. The samples were incubated in a metal bath at 100° C. for 10 min.
The samples were electrophoretically separated from proteins on a 4-20% precast gel (SDS-PAGE gel), transferred to a PVDF membrane, blocked with 5% NFDM/TBST for 1 h at room temperature, co-incubated overnight at 4° C. with the primary antibody, and co-incubated for 2 h at room temperature with the secondary antibody on the next day. The signals were detected on the […]™ imaging system.

[2] = tested on: MV-4-11 cells; assay: Antiproliferative activity against MV-4-11 cells (CellTiter-Glo, 72 h); type: cell-based; details: Homo sapiens, read-out: Antiproliferative activity IC50
Description: MV411 cells in the logarithmic growth phase were diluted in a medium (RPMI+10% FBS) and plated at 5,000 cells/well in 96-well whole black plates (WHB) with 50 μL/well. After plating, the plates were incubated in an incubator at 5% CO2 and 37° C. for 24 h before the compounds were added. The compounds were prepared into a 10 mM stock solution in DMSO and diluted in a culture medium to the desired concentrations (a final DMSO concentration of 0.2%). […] The plates were incubated at 5% CO2 and 37° C. for 72 h. After the incubation was complete, the plates were equilibrated at room temperature for 30 min. CellTiter-Glo® Reagent (Promega G7573) was added at 100 μL/well. The plates were shaken for 12 min on a microplate shaker. The luminescence value was measured at room temperature by the GloMax navigator (Promega GM2010).

SMILES	inhibition at 1 µM ([1]; NB-4 cells, compound 1 μM, 6 h)	IC50 ([2]; MV4-11, MV-4-11 cells, 72 h)	inhibition at 1 µM ([1]; NB-4, 6 h)	IC50 ([2]; MV4-11, 72 h)
COc1ccc(C(=O)NCc2ccc3c(c2F)CN(C2CCC(=O)NC2=O)C3=O)cc1OC (stereo not shown) [FDAB-102]	< 25%	> 1000 nM		
C=Cc1ccc(C(=O)NCc2ccc3c(c2F)CN(C2CCC(=O)NC2=O)C3=O)cc1 (stereo not shown) [FDAB-95]	> 80%	1 to 10 nM		
O=C(CCCc1ccc(I)cc1)NCc1ccc2c(c1F)CN(C1CCC(=O)NC1=O)C2=O (stereo not shown) [FDAB-139]	> 80%	1 to 10 nM		
O=C1CCC(N2Cc3c(ccc(CNC(=O)c4ccc(C5CC5)cc4)c3F)C2=O)C(=O)N1 (stereo not shown) [FDAB-97]	> 80%	1 to 10 nM		
O=C1CCC(N2Cc3c(ccc(CNC(=O)c4ccc(Cl)cc4F)c3Cl)C2=O)C(=O)N1 (stereo not shown) [FDAB-119]	> 80%	10 to 100 nM		
CC(C)(C)OC(=O)NCc1cc2c(cc1Cl)C(=O)N(C1CCC(=O)NC1=O)C2 (stereo not shown) [FDAB-14]	< 25%	> 1000 nM		
O=C1CCC(N2Cc3cc(CNC(=O)c4ccc(Cl)cc4)c(F)cc3C2=O)C(=O)N1 (stereo not shown) [FDAB-23]	> 80%	10 to 100 nM		
O=C(CCc1cccc2ccccc12)NCc1ccc2c(c1F)CN(C1CCC(=O)NC1=O)C2=O (stereo not shown) [FDAB-138]	> 80%	< 1 nM		
O=C1CCC(N2Cc3cc(CNC(=O)c4cc5cc(F)ccc5o4)c(F)cc3C2=O)C(=O)N1 (stereo not shown) [FDAB-35]	50 to 80%	10 to 100 nM		
Nc1cccc(C(=O)NCc2cc3c(cc2F)C(=O)N(C2CCC(=O)NC2=O)C3)c1 (stereo not shown) [FDAB-34]	< 25%	> 1000 nM		
Nc1cc(C(=O)NCc2ccc3c(c2F)CN(C2CCC(=O)NC2=O)C3=O)ccc1Cl (stereo not shown) [FDAB-113]	> 80%	10 to 100 nM		
O=C1CCC(N2Cc3cc(CNC(=O)c4cccnc4)c(F)cc3C2=O)C(=O)N1 (stereo not shown) [FDAB-30]	< 25%	> 1000 nM		
O=C(CCc1cccc2ccccc12)NCc1cc(F)cc2c1CN(C1CCC(=O)NC1=O)C2=O (stereo not shown) [FDAB-170]	> 80%	10 to 100 nM		
NCc1cc2c(cc1F)C(=O)N(C1CCC(=O)NC1=O)C2 (stereo not shown) [FDAB-6]	50 to 80%	10 to 100 nM		
CC(C)(C)OC(=O)NCc1cc(F)c2c(c1)CN(C1CCC(=O)NC1=O)C2=O (stereo not shown) [FDAB-8]	< 25%	> 1000 nM		
COc1cccc(C(=O)NCc2cc3c(cc2F)C(=O)N(C2CCC(=O)NC2=O)C3)c1 (stereo not shown) [FDAB-37]	50 to 80%	10 to 100 nM		
N#Cc1cc2c(cc1Cl)C(=O)N(C1CCC(=O)NC1=O)C2 (stereo not shown) [FDAB-13]	< 25%	> 1000 nM		
O=C1CCC(N2Cc3c(ccc(CNC(=O)c4ccccc4)c3F)C2=O)C(=O)N1 (stereo not shown) [FDAB-81]	< 25%	> 1000 nM		
CCCc1ccc(C(=O)NCc2ccc3c(c2F)CN(C2CCC(=O)NC2=O)C3=O)cc1 (stereo not shown) [FDAB-91]	> 80%	< 1 nM		

SMILES	inhibition at 1 µM ([1]; NB-4 cells, compound 1 μM, 6 h)	IC50 ([2]; MV4-11, MV-4-11 cells, 72 h)	inhibition at 1 µM ([1]; NB-4, 6 h)	IC50 ([2]; MV4-11, 72 h)
N#Cc1cc(C(=O)NCc2cc3c(cc2F)C(=O)N(C2CCC(=O)NC2=O)C3)ccc1Cl (stereo not shown) [FDAB-54]	50 to 80%	10 to 100 nM		
O=C1CCC(N2Cc3c(ccc(CNC(=O)c4ccc(Cl)cn4)c3F)C2=O)C(=O)N1 (stereo not shown) [FDAB-62]	< 25%	> 1000 nM		
CC(C)(C)OC(=O)NCc1ccc2c(c1Cl)CN(C1CCC(=O)NC1=O)C2=O (stereo not shown) [FDAB-11]	< 25%	> 1000 nM		
O=C1CCC(N2Cc3c(ccc(CNC(=O)c4cc5ccccc5o4)c3Cl)C2=O)C(=O)N1 (stereo not shown) [FDAB-67]	> 80%	1 to 10 nM		
O=C1CCC(N2Cc3c(ccc(CNC(=O)c4cc5ccccc5[nH]4)c3Cl)C2=O)C(=O)N1 (stereo not shown) [FDAB-75]	50 to 80%	1 to 10 nM		
O=C1CCC(N2Cc3cc(CNC(=O)c4ccccc4)c(F)cc3C2=O)C(=O)N1 (stereo not shown) [FDAB-25]	< 25%	> 1000 nM		
O=C1CCC(N2Cc3c(ccc(CNC(=O)c4ccc(N5CCCC5)cc4)c3F)C2=O)C(=O)N1 (stereo not shown) [FDAB-110]	> 80%	< 1 nM		
Cc1ccc(C(=O)NCc2ccc3c(c2F)CN(C2CCC(=O)NC2=O)C3=O)c(N)c1 (stereo not shown) [FDAB-111]	< 25%	> 1000 nM		
Nc1ccc(C(=O)NCc2cc3c(cc2F)C(=O)N(C2CCC(=O)NC2=O)C3)cc1 (stereo not shown) [FDAB-27]	< 25%	> 1000 nM		
O=C1CCC(N2Cc3cc(CNC(=O)c4ccc(C(F)(F)F)cc4)c(F)cc3C2=O)C(=O)N1 (stereo not shown) [FDAB-52]	> 80%	1 to 10 nM		
O=C1CCC(N2Cc3cc(CNC(=O)c4cc5ccccc5o4)cc(F)c3C2=O)C(=O)N1 (stereo not shown) [FDAB-21]	< 25%	> 1000 nM		
Cc1ccc(C(=O)NCc2ccc3c(c2F)CN(C2CCC(=O)N(COC(=O)OC(C)C)C2=O)C3=O)c(F)c1 (stereo not shown) [FDAB-130]			50 to 80%	10 to 100 nM
O=C1CCC(N2Cc3cc(CNC(=O)c4ccc(Cl)cc4)c(Cl)cc3C2=O)C(=O)N1 (stereo not shown) [FDAB-74]	< 25%	> 1000 nM		
N#Cc1ccc2c(c1F)CN(C1CCC(=O)NC1=O)C2=O (stereo not shown) [FDAB-1]	< 25%	> 1000 nM		
O=C(C#Cc1ccccn1)NCc1ccc2c(c1F)CN(C1CCC(=O)NC1=O)C2=O (stereo not shown) [FDAB-148]	> 80%	1 to 10 nM		
O=C1CCC(N2Cc3c(ccc(CNC(=O)c4ccc(-c5ccccc5)cc4)c3F)C2=O)C(=O)N1 (stereo not shown) [FDAB-84]	> 80%	< 1 nM		
O=C1CCC(N2Cc3c(ccc(CNCc4ccc(Oc5ccccc5)cc4)c3F)C2=O)C(=O)N1 (stereo not shown) [FDAB-166]			> 80%	1 to 10 nM
O=C1CCC(N2Cc3c(ccc(CNCc4ccc(Cl)cc4)c3F)C2=O)C(=O)N1 (stereo not shown) [FDAB-168]	> 80%	10 to 100 nM		
O=C1CCC(N2Cc3cc(CNC(=O)c4ccc(O)cc4)c(F)cc3C2=O)C(=O)N1 (stereo not shown) [FDAB-28]	< 25%	> 1000 nM		

SMILES	inhibition at 1 µM ([1]; NB-4 cells, compound 1 μM, 6 h)	IC50 ([2]; MV4-11, MV-4-11 cells, 72 h)	inhibition at 1 µM ([1]; NB-4, 6 h)	IC50 ([2]; MV4-11, 72 h)
O=C1CCC(N2Cc3cc(CNC(=O)c4cnco4)c(F)cc3C2=O)C(=O)N1 (stereo not shown) [FDAB-43]	< 25%	> 1000 nM		
CCOC(=O)CN1C(=O)CCC(N2Cc3c(ccc(CNC(=O)c4ccc(Cl)cc4)c3F)C2=O)C1=O (stereo not shown) [FDAB-126]	< 25%	> 1000 nM		
Cc1ccc(C(=O)NCc2ccc3c(c2F)CN(C2CCC(=O)NC2=O)C3=O)c(O)c1 (stereo not shown) [FDAB-109]	> 80%	1 to 10 nM		
O=C1CCC(N2Cc3c(ccc(CNC(=O)c4ccc(Cl)c(F)c4)c3F)C2=O)C(=O)N1 (stereo not shown) [FDAB-116]	> 80%	1 to 10 nM		
O=C1CCC(N2Cc3cc(CNC(=O)C4CCCC4)c(F)cc3C2=O)C(=O)N1 (stereo not shown) [FDAB-41]	< 25%	> 1000 nM		
Cc1ccc(C(=O)NCc2ccc3c(c2Cl)CN(C2CCC(=O)NC2=O)C3=O)cc1F (stereo not shown) [FDAB-122]	< 25%	100 to 1000 nM		
O=C(CCP(c1ccccc1)c1ccccc1)NCc1ccc2c(c1F)CN(C1CCC(=O)NC1=O)C2=O (stereo not shown) [FDAB-160]	> 80%	< 1 nM		
Cc1ccc(C(=O)NCc2ccc3c(c2F)CN(C2CCC(=O)NC2=O)C3=O)cc1N (stereo not shown) [FDAB-112]	> 80%	10 to 100 nM		
O=C1CCC(N2Cc3c(ccc(CNC(=O)c4ccc5c(c4)C(=O)CC5)c3F)C2=O)C(=O)N1 (stereo not shown) [FDAB-106]	> 80%	10 to 100 nM		
N#Cc1ccc2c(c1Cl)CN(C1CCC(=O)NC1=O)C2=O (stereo not shown) [FDAB-10]	< 25%	> 1000 nM		
O=C1CCC(N2Cc3cc(CNC(=O)c4ccncn4)c(F)cc3C2=O)C(=O)N1 (stereo not shown) [FDAB-38]	< 25%	> 1000 nM		
O=C1CCC(N2Cc3c(ccc(CNC(=O)c4ccc(C(F)(F)F)cc4)c3F)C2=O)C(=O)N1 (stereo not shown) [FDAB-61]	> 80%	1 to 10 nM		
NCc1ccc2c(c1Cl)CN(C1CCC(=O)NC1=O)C2=O (stereo not shown) [FDAB-12]	< 25%	> 1000 nM		
O=C1CCC(N2Cc3c(ccc(CNC(=O)c4ccc(Cl)cc4F)c3F)C2=O)C(=O)N1 (stereo not shown) [FDAB-117]	> 80%	1 to 10 nM		
Cc1ccc(C(=O)NCc2ccc3c(c2Cl)CN(C2CCC(=O)NC2=O)C3=O)c(F)c1 (stereo not shown) [FDAB-123]	50 to 80%	10 to 100 nM		
O=C1CCC(N2Cc3cc(CNC(=O)c4ccc(F)cc4)c(F)cc3C2=O)C(=O)N1 (stereo not shown) [FDAB-26]	< 25%	> 1000 nM		
O=C1CCC(N2Cc3c(ccc(CNC(=O)c4ccc(Oc5ccccc5)cc4)c3F)C2=O)C(=O)N1 (stereo not shown) [FDAB-101]	> 80%	< 1 nM		
COc1cc(C)c(/C=C/C(C)=C/C=C/C(C)=C/C(=O)NCc2ccc3c(c2F)CN(C2CCC(=O)NC2=O)C3=O)c(C)c1C (stereo not shown) [FDAB-162]	> 80%	< 1 nM		
